Experimental data reported in BindingDB's records for doi:10.1021/jm00159a013 (1986).

Target: Prostacyclin synthase (Sus scrofa)
Test: Inhibition of porcine aorta prostacyclin PGI-2 synthetase

Structure (SMILES) | IC50 [µM]
Cc1c(Cn2ccnc2)sc2ccc(C(=O)O)cc12 [2-Imidazol-1-ylmethyl-3-methyl-benzo[b]thiophene-5-carboxylic acid] | > 100
Cc1c(Cn2ccnc2)sc2cc(C(=O)O)ccc12 [2-Imidazol-1-ylmethyl-3-methyl-benzo[b]thiophene-6-carboxylic acid] | > 100
Cc1c(Cn2ccnc2)oc2ccc(C(=O)O)cc12 [2-Imidazol-1-ylmethyl-3-methyl-benzofuran-5-carboxylic acid] | > 100
O=C(O)c1ccc2sc(Cn3ccnc3)cc2c1 [2-Imidazol-1-ylmethyl-benzo[b]thiophene-5-carboxylic acid] | > 100
O=C(O)c1ccc2c(Cl)c(Cn3ccnc3)sc2c1 [3-Chloro-2-imidazol-1-ylmethyl-benzo[b]thiophene-6-carboxylic acid] | > 100
O=C(O)c1ccc2oc(Cn3ccnc3)c(Cl)c2c1 [3-Chloro-2-imidazol-1-ylmethyl-benzofuran-5-carboxylic acid] | > 100
